According to patent publication US10632105B2, “Pharmacological stimulation to facilitate and restore standing and walking functions in spinal cord motor disorders” (ECOLE POLYTECHNIQUE FEDERALE DE LAUSANNE (EPFL), priority 2013, dated 2020):
Entries after “also recorded” stand apart in the source; their conditions may differ.

Key:
[1] = system: cats with a complete spinal cord injury; details: spinal / spinalized cats, complete SCI; cited from earlier work
[2] = 8-OHDPAT in combination with α2c stimulation and/or α2a blocking, locomotion; type: in vivo; details: 8-OHDPAT in combination with the α2c stimulation or the α2a blocking or both
[3] = system: humans with a severe spinal cord injury; details: cited from earlier work
[4] = system: α2c KO mice; details: spinal α2c KO mice, EES, clonidine i.p.
Experimental: (§1) The experiments in rats were conducted on adult female Sprague Dawley (300 g body weight). Functional testings in mice were carried out in α2a and α2c knockout animals aged 3-5 months, from both gender, obtained from L. Hein (University of Freiburg, Germany). The generation of the mouse lines lacking α2-adrenoreceptor subtypes has been previously described in detail (Abnormal regulation of the sympathetic nervous system in alpha2A-adrenergic receptor knockout mice. Altman J D, Trendelenburg A U, MacMillan L, Bernstein D, Limbird L, Starke K, Kobilka B K, Hein L. Mol Pharmacol. 1999 July; 56(1):154-61; Targeted inactivation of the gene encoding the mouse alpha 2c-adrenoceptor homolog. Link R E, Stevens M S, Kulatunga M, Scheinin M, Barsh G S, Kobilka B K. Mol Pharmacol. 1995 July; 48(1):48-55; Cardiovascular regulation in mice lacking alpha2-adrenergic receptor subtypes b and c. Link R E, Desai K, Hein L, Stevens M E, Chruscinski A, Bernstein D, Barsh G S, Kobilka B K. Science. 1996 Aug. 9; 273(5276):803-5). To investigate the spinal distribution of the α2 subtypes, we used BAC transgenic mice expressing the reporter protein GFP upstream the coding sequence of the α2a or α2c receptor subtype (strains 014248-UCD and 030098-UCD MMRRC, USA). All procedures were approved by the Veterinary Office of the Canton of Vaud, Switzerland. Animals were housed individually on a 12 h light/dark cycle, with access to food and water ad libitum.
(§2) All tested animals were allowed to recover for 2-5 weeks after lesion to regain stable levels of excitability in the spinal networks to facilitate locomotion via EES (Epidural stimulation induced modulation of spinal locomotor networks in adult spinal rats. Lavrov I, Dy C J, Fong A J, Gerasimenko Y, Courtine G, Zhong H, Roy R R, Edgerton V R. J Neurosci. 2008). An upper body harness was used to position the rats over a treadmill belt and to partially support their body weight during bipedal locomotion (FIG. 1A). An automated, servocontrolled body weight support system (Robomedica) measured and provided the optimal amount of body weight support that each rat needed to step. To facilitate locomotion via EES, monopolar rectangular pulses (0.2 ms duration) were delivered at 40 Hz using two constant-current stimulators (AM Systems) connected to the electrodes positioned at L2 and S1.

[5] = system: α2a KO mice; details: spinal α2a KO mice, EES, clonidine i.p.
Experimental: as §1, §2

[6] = system: rats with complete SCI; details: rats with complete SCI (Musienko et al. 2011); cited from earlier work
[7] = system: spinal rats; test: Stepping patterns enabled by EES in spinal rats (complete T7 transection, bipedal treadmill); type: in vivo, rat; details: for locomotion / stepping enabled by EES: treadmill 13 cm/s, clonidine 0.4-0.5 mg/kg, BRL-44408 given 5 min before clonidine in the combination
Experimental: Link R E, Desai K, Hein L, Stevens M E, Chruscinski A, Bernstein D, Barsh G S, Kobilka B K. Science. 1996 Aug. 9; 273(5276):803-5).
All procedures have been described in detail previously (see above, Courtine et al., 2009). Briefly, under general anesthesia and aseptic conditions, a partial laminectomy was performed over spinal segments L2 and S1. Teflon-coated stainless-steel wires (AS632; Cooner Wire) were passed under the spinous processes and above the dura mater of the remaining vertebrae between the partial laminectomy sites.
Bipolar intramuscular EMG electrodes using the same wire type as above were inserted bilaterally in the midbelly of the tibialis anterior (TA), midbelly of the vastus lateralis (VL), distal deep compartment of the semitendinosus (St), and medial deep region of the medial gastrocnemius (MG) muscles. All electrode wires were connected to a percutaneous amphenol connector cemented to the rat skull. In the same surgical intervention, the spinal cord was transected completely at a midthoracic level (T7) (Courtine et al., 2009).
All experimental testing followed the same protocol.
In KO mice experiments, only clonidine was injected intraperitoneally.
Three-dimensional video recordings (200 Hz) were made using the motion capture system VICON. Eight infrared television cameras (200 Hz) were used to track the motion of reflective markers attached bilaterally at the iliac crest, greater trochanter, lateral condyle, lateral malleolus, distal end of the fifth metatarsal [metatarsophalangeal joint (MTP)], and tip of the toe (FIG. 1A). Nexus (Vicon) was used to obtain 3-D coordinates of the markers. The body was modeled as an interconnected chain of rigid segments, and joint angles were generated accordingly.
Moments and ground reaction forces in the vertical, antero-posterior, and mediolateral directions were monitored using a biomechanical force plate (2 kHz; HE6X6; AMTI) located below the treadmill belt (FIG. 1A). Vicon BodyBuilder (Vicon) was used to compute the displacements of the center of foot pressures.
EMG signals (2 kHz) were amplified, filtered (10-1000 Hz bandpass), stored, and analyzed off-line to compute the amplitude, duration, and timing of individual bursts (Courtine et al., 2009).
Ten successive step cycles were extracted for both the left and right hindlimbs from a continuous sequence of stepping on the treadmill for each animal under each condition. When no stepping movements were observed, a 10 s period was recorded and analyzed. A total of 129 parameters quantifying gait, kinematics, kinetics, and EMG features were computed for each limb and gait cycle according to methods described in detail previously (Kinematic and EMG determinants in quadrupedal locomotion of a non-human primate (Rhesus). Courtine G, Roy R R, Hodgson J, McKay H, Raven J, Zhong H, Yang H, Tuszynski M H, Edgerton V R. J Neurophysiol. 2005 June; 93(6):3127-45; Recovery of supraspinal control of stepping via indirect propriospinal relay connections after spinal cord injury. Courtine G, Song B, Roy R R, Zhong H, Herrmann J E, Ao Y, Qi J, Edgerton V R, Sofroniew M V. Nat Med. 2008 January; 14(1):69-74; Transformation of nonfunctional spinal circuits into functional states after the loss of brain input. Courtine G, Gerasimenko Y, van den Brand R, Yew A, Musienko P, Zhong H, Song B, Ao Y, Ichiyama R M, Lavrov I, Roy R R, Sofroniew M V, Edgerton V R. Nat Neurosci. 2009 October; 12(10): 1333-42).
These parameters provided a holistic quantification of locomotor patterns ranging from general features of gait to fine details of limb motions and coordination. To allow direct comparisons between the different experimental conditions, all computed variables were normalized to those measured before drug injection (i.e., during locomotion facilitated by dual-site EES alone).
All data are reported as mean values±SEM. Repeated-measures ANOVAs were used to test differences between locomotor parameters recorded before and after drug injections […]

[8] = 5 weeks after lesion, with EES, i.p., BRL-44408 4-5 mg/kg
[9] = 2 weeks after lesion, 200 umol/kg, together with EES
[10] = 5 weeks after lesion, with EES, i.p., BRL-44408 4-5 mg/kg, clonidine 0.4 mg/kg

## Clc1ccc2nsnc2c1NC1=NCCN1 [tizanidine]
[1]
  locomotion: facilitated expression of locomotion

## CCCN(CCC)C1CCc2cccc(O)c2C1 (centres unmarked) [8-OHDPAT]
[2]
  locomotion: further facilitation of locomotion

## Clc1cccc(Cl)c1N=C1NCCN1 [clonidine]
[1]
  locomotion: marked facilitation of locomotion
[3]; human, clonidine injections (Dietz et al. 1995)
  locomotion: dysfacilitated locomotion
[3]; humans with a severe spinal cord injury, low clonidine dosages (Dietz et al., 1995)
  locomotor EMG activity: suppress or markedly reduce locomotor EMG activity
[4]
  locomotor abilities: significant blocking of the locomotor abilities
[5]
  locomotor function: triggered a facilitation of the locomotor function
  locomotor stability: improvement of locomotor stability
  movement magnitudes of the hindlimb joints: increase of the movement magnitudes of the hindlimb joints
[6]
  stepping: abolished stepping
[7]; [8]
  locomotion / stepping enabled by EES: abolished the stepping enabled by EES

## NC1=N[C@@H](Cc2c(F)cccc2F)CO1 [formula (I)]
[7]; 2 weeks after lesion, 200 umol/kg, effect exclusively when applied together with spinal cord stimulation (EES)
  locomotion: significantly improved locomotion
[7]; [9]
  limb amplitude: increased the limb amplitude
  paw dragging: reduced the paw dragging

## CC1c2ccccc2CN1CC1=NCCN1 (centres unmarked) [BRL-44408, 2-[(4,5-Dihydro-1H-imidazol-2-yl)methyl]-2,3-dihydro-1-methyl-1H-isoindole]
[7]; [8]
  locomotion / stepping enabled by EES: improved locomotion; also recorded: moderately improves locomotion
[7]; [10]
  paw dragging: reduced paw dragging
  step height: substantially improved the step height
